# Where “and” joins values, the source holds several entries; their conditions need not be identical. Equal entries are not always repeated. Where two headings read alike, the source gives them in different places.
# Assays:
# [1] = Postdose observations in the pharmacokinetic study; assay type: in vivo, male C57BL6/j mice; details: single 20 mg/kg IV or PO
# [2] = male, C57BL6/j, mouse, in vivo, po, 20 mg/kg
# [3] = Plasma pharmacokinetics after single IV and PO dose; assay type: in vivo, male C57BL6/j mice; details: for Plasma Concentration, individual mice / concentration at 0.5 hr / concentration at 1 hr / concentration at 2 hr / concentration at 4 hr / concentration at 8 hr / concentration at 12 hr / Vd: 20 mg/kg; for MRT inf: read-out: MRT(0-∞)
# Description: Three mice in each group were used for blood collection at each time point. Blood samples (approximately 400 μL) were collected after euthanasia using carbon dioxide inhalation via cardiac puncture pre-dose and 30 minutes, 1 hour, 2 hours, 4 hours, 8 hours and 12 hours post-dose. Blood samples were placed into tubes containing sodium heparin and centrifuged at 8000 rpm for 6 minutes at 4° C. to separate plasma from the blood samples. Following centrifugation, the resulting plasma was transferred to clean tubes and stored frozen at −80° C. until bioanalysis by the Testing Facility.
# in vivo = details: male, C57BL6/j, mouse, 20 mg/kg
# BJeLR cells = experiment: RSL testing: growth inhibition (alamar blue) in BJeLR cells; assay type: cell-based; details: Homo sapiens, BJeLR
# Description: Cell viability was determined using alamar blue and percent growth inhibition computed as described previously (Id.).
# [4] = male, C57BL6/j, mouse, plasma, IV 20 mg/kg
# [5] = male, C57BL6/j, mouse, plasma, PO 20 mg/kg
# [6] = iv, Brain Concentration, individual mice
# [7] = iv, Brain-Plasma Concentration Ratio, Mean
# [8] = iv, Brain-Plasma Concentration Ratio, individual mice
# [9] = po, Brain Concentration, individual mice
# [10] = po, Brain-Plasma Concentration Ratio, Mean
# [11] = po, Brain-Plasma Concentration Ratio, individual mice
smiles,measurement,setting,value
"CC(C)Oc1ccc(CN2CCNCC2)cc1-n1c(CN2CCN(C(=O)COc3ccc(Cl)cc3)CC2)nc2ccccc2c1=O [PE, 2-((4-(2-(4-chlorophenoxy)ethanoyl)piperazin-1-yl)methyl)-3-(2-isopropoxy-5-(piperazin-1-ylmethyl)phenyl)quinazolin-4(3H)-one]",postdose observations,[1],No abnormal observations were noted
same,"Brain Concentration, individual mice",[2]; 1 h,18.92 ng/g
same,"Brain-Plasma Concentration Ratio, individual mice",[2]; 1 h,0.01 mL/g
same,"Brain Concentration, individual mice",[2]; 2 h,9.49 ng/g
same,"Brain-Plasma Concentration Ratio, individual mice",[2]; 2 h,0.01 mL/g
same,"Plasma Concentration, individual mice","[3]; IV 20 mg/kg, 0.5 hr",4625.87 ng/mL and 2218.81 ng/mL and 2826.92 ng/mL
same,"Plasma Concentration, individual mice","[3]; IV 20 mg/kg, 1 hr",1548.38 ng/mL and 657.50 ng/mL and 1509.78 ng/mL
same,"Plasma Concentration, individual mice","[3]; IV 20 mg/kg, 2 hr",1016.04 ng/mL and 1054.66 ng/mL
same,"Plasma Concentration, individual mice","[3]; IV 20 mg/kg, 4 hr",200.14 ng/mL and 657.19 ng/mL and 379.24 ng/mL
same,"Plasma Concentration, individual mice","[3]; IV 20 mg/kg, 8 hr",105.57 ng/mL and 148.67 ng/mL
same,"Plasma Concentration, individual mice","[3]; IV 20 mg/kg, 12 hr",34.53 ng/mL and 159.78 ng/mL and 96.08 ng/mL
same,"Plasma Concentration, individual mice","[3]; PO 20 mg/kg, 0.5 hr",365.89 ng/mL and 403.60 ng/mL and 87.63 ng/mL
same,"Plasma Concentration, individual mice","[3]; PO 20 mg/kg, 1 hr",1635.86 ng/mL and 1288.53 ng/mL
same,"Plasma Concentration, individual mice","[3]; PO 20 mg/kg, 2 hr",1260.55 ng/mL and 527.50 ng/mL and 1016.24 ng/mL
same,"Plasma Concentration, individual mice","[3]; PO 20 mg/kg, 4 hr",642.39 ng/mL and 669.76 ng/mL
same,"Plasma Concentration, individual mice","[3]; PO 20 mg/kg, 8 hr",23.99 ng/mL and 28.91 ng/mL
same,"Plasma Concentration, individual mice","[3]; PO 20 mg/kg, 12 hr",21.10 ng/mL and 15.06 ng/mL
same,concentration at 0.5 hr,"[3]; male, C57BL6/j, mouse, plasma, iv, IV 20 mg/kg, 0.5 hr",3220 ng/mL
same,concentration at 1 hr,"[3]; male, C57BL6/j, mouse, plasma, iv, IV 20 mg/kg, 1 hr, read-out: Plasma Concentration, Mean",1240 ng/mL
same,concentration at 2 hr,"[3]; male, C57BL6/j, mouse, plasma, iv, IV 20 mg/kg, 2 hr, read-out: Plasma Concentration, Mean",997 ng/mL
same,concentration at 2 hr,"[3]; male, C57BL6/j, mouse, plasma, iv, IV 20 mg/kg, 2 hr, read-out: Plasma Concentration, individual mice",920 ng/mL
same,concentration at 4 hr,"[3]; male, C57BL6/j, mouse, plasma, iv, IV 20 mg/kg, 4 hr, read-out: Plasma Concentration, Mean",412 ng/mL
same,concentration at 8 hr,"[3]; male, C57BL6/j, mouse, plasma, iv, IV 20 mg/kg, 8 hr, read-out: Plasma Concentration, Mean",134 ng/mL
same,concentration at 8 hr,"[3]; male, C57BL6/j, mouse, plasma, iv, IV 20 mg/kg, 8 hr, read-out: Plasma Concentration, individual mice",147 ng/mL
same,concentration at 12 hr,"[3]; male, C57BL6/j, mouse, plasma, iv, IV 20 mg/kg, 12 hr, read-out: Plasma Concentration, Mean",96.8 ng/mL
same,Vd,"[3]; male, C57BL6/j, mouse, plasma, iv, plasma, IV 20 mg/kg, read-out: Vz",9.63 L/kg
same,Vd,"[3]; male, C57BL6/j, mouse, plasma, iv, plasma, IV 20 mg/kg, read-out: volume of distribution at terminal phase",9.63 L/kg
same,concentration at 0.5 hr,"[3]; male, C57BL6/j, mouse, plasma, po, PO 20 mg/kg, 0.5 hr",286 ng/mL
same,concentration at 1 hr,"[3]; male, C57BL6/j, mouse, plasma, po, PO 20 mg/kg, 1 hr, read-out: Plasma Concentration, Mean",1390 ng/mL
same,concentration at 1 hr,"[3]; male, C57BL6/j, mouse, plasma, po, PO 20 mg/kg, 1 hr, read-out: Plasma Concentration, individual mice",1240 ng/mL
same,concentration at 2 hr,"[3]; male, C57BL6/j, mouse, plasma, po, PO 20 mg/kg, 2 hr, read-out: Plasma Concentration, Mean",935 ng/mL
same,concentration at 4 hr,"[3]; male, C57BL6/j, mouse, plasma, po, PO 20 mg/kg, 4 hr, read-out: Plasma Concentration, Mean",696 ng/mL
same,concentration at 4 hr,"[3]; male, C57BL6/j, mouse, plasma, po, PO 20 mg/kg, 4 hr, read-out: Plasma Concentration, individual mice",777 ng/mL
same,concentration at 8 hr,"[3]; male, C57BL6/j, mouse, plasma, po, PO 20 mg/kg, 8 hr, read-out: Plasma Concentration, Mean",24 ng/mL
same,concentration at 8 hr,"[3]; male, C57BL6/j, mouse, plasma, po, PO 20 mg/kg, 8 hr, read-out: Plasma Concentration, individual mice",19.1 ng/mL
same,concentration at 12 hr,"[3]; male, C57BL6/j, mouse, plasma, po, PO 20 mg/kg, 12 hr, read-out: Plasma Concentration, Mean",18.8 ng/mL
same,concentration at 12 hr,"[3]; male, C57BL6/j, mouse, plasma, po, PO 20 mg/kg, 12 hr, read-out: Plasma Concentration, individual mice",20.2 ng/mL
same,bioavailability,"[3]; male, C57BL6/j, mouse, plasma, PO 20 mg/kg vs IV 20 mg/kg, read-out: F (bioavailability)",57.1%
same,AUC(0-inf),[3]; [4],8490 ng·h/mL
same,AUC(0-t),[3]; [4],8100 ng·h/mL
same,Cmax,[3]; [4],3220 ng/mL
same,Tmax,[3]; [4],0.5 h
same,half-life,[3]; [4],2.84 h
same,MRT inf,[3]; [4],2.67 h
same,clearance,"[3]; male, C57BL6/j, mouse, plasma, IV 20 mg/kg, read-out: systemic clearance (converted)",39.2 mL/min/kg
same,AUC(0-inf),[3]; [5],4850 ng·h/mL
same,AUC(0-t),[3]; [5],4810 ng·h/mL
same,Cmax,[3]; [5],1390 ng/mL
same,Tmax,[3]; [5],1 h
same,half-life,[3]; [5],1.57 h
same,MRT inf,[3]; [5],2.91 h
same,CLz,"[3]; plasma, IV 20 mg/kg",39.2413 mL/min/kg
same,MRT inf,in vivo; iv,9.91 h
same,Tmax,in vivo; iv,0.5 h
same,half-life,in vivo; iv,6.41 h
same,concentration at 0.5 h,"in vivo; iv, Brain Concentration, Mean",96.1 ng/g
same,concentration at 1 h,"in vivo; iv, Brain Concentration, Mean",85.5 ng/g
same,concentration at 2 h,"in vivo; iv, Brain Concentration, Mean",73.7 ng/g
same,concentration at 4 h,"in vivo; iv, Brain Concentration, Mean",48 ng/g
same,concentration at 8 h,"in vivo; iv, Brain Concentration, Mean",30 ng/g
same,concentration at 12 h,"in vivo; iv, Brain Concentration, Mean",29.8 ng/g
same,concentration at 0.5 h,in vivo; [6],116 ng/g
same,concentration at 1 h,in vivo; [6],76.6 ng/g
same,concentration at 2 h,in vivo; [6],79.1 ng/g
same,concentration at 4 h,in vivo; [6],34.1 ng/g
same,Kp at 0.5 hr,in vivo; [7],0.03
same,Kp at 1 h,in vivo; [7],0.08
same,Kp at 2 h,in vivo; [7],0.07
same,Kp at 4 h,in vivo; [7],0.13
same,Kp at 8 h,in vivo; [7],0.23
same,Kp at 12 h,in vivo; [7],0.44
same,Kp at 0.5 hr,in vivo; [8],0.03
same,Kp at 2 h,in vivo; [8],0.09
same,Kp at 4 h,in vivo; [8],0.17
same,Tmax,in vivo; po,4 h
same,concentration at 1 h,"in vivo; po, Brain Concentration, Mean",14.9 ng/g
same,concentration at 2 h,"in vivo; po, Brain Concentration, Mean",12.3 ng/g
same,concentration at 4 h,"in vivo; po, Brain Concentration, Mean",15.6 ng/g
same,concentration at 1 h,in vivo; [9],10.9 ng/g
same,concentration at 2 h,in vivo; [9],15.1 ng/g
same,concentration at 4 h,in vivo; [9],14.2 ng/g
same,Kp at 1 h,in vivo; [10],0.01
same,Kp at 2 h,in vivo; [10],0.01
same,Kp at 4 hr,in vivo; [10],0.02
same,Kp at 1 h,in vivo; [11],0.01
same,Kp at 2 h,in vivo; [11],0.01
same,Kp at 4 hr,in vivo; [11],0.02
CCOc1ccccc1-n1c(C(C)N2CCN(C(=O)COc3ccc(Cl)cc3)CC2)nc2ccccc2c1=O (centres unmarked) [erastin],EC50,BJeLR cells; read-out: EC50 (BJELR),1800 nM
same,EC50,BJeLR cells; read-out: EC50 (BJeLR),1780 nM
